Consider 3 compounds from article PMC2792043 (PLoS ONE, 2009).

The term EC50 denotes the concentration giving half of the maximal effect. The IC50 is the concentration that inhibits the measured activity by half. What is called LD50 is the dose at which mortality reaches 50%.

Data set [1] concerns influenza A PR8 virus. The data set can be described thus: microbe, parasite or virus in culture. The settings on record: PR8, MDCK, 48 h, read-out: minimum effective dose required to protect 50% of cells (EC50). The class given is cell-based.
The test system of data set [2] is influenza A strains PR8, NY or NC. The format is cell-based.
For data set [3], the system named is influenza A PR8 virus. The class given is cell-based.
The subject of a further data set is influenza A NC virus. The class given is cell-based.
The next data set deals with influenza A NY virus. The format is cell-based.
In data set [4] the test system is influenza A PR8 virus. The class given is cell-based, Influenza A/Puerto Rico/8/34 (H1N1).
The subject of data set [5] is influenza A PR8 virus. The class given is cell-based, Influenza A/Puerto Rico/8/34 (H1N1). This is another data set of the same source.
Data set [6] deals with influenza A and B viruses. The format is cell-based.
A further data set has as its system influenza A or B viruses. The class given is cell-based.
The subject of data set [7] is influenza A PR8 virus. The class given is cell-based, Influenza A/Puerto Rico/8/34 (H1N1). The source holds these as a separate data set.
Data set [8] has as its target NA from influenza NC virus (Influenza A virus, UniProt Q7TG96). The class given is biochemical. As to conditions: read-out: IC50 NA activity.
For a further data set, the target named is recombinant N4 protein (Influenza A virus, UniProt Q6XV43). The data set can be described thus: biochemical.
A further data set can be described thus: in vitro. As to conditions: pH 7.2.
The subject of the next data set is hamsters. The settings on record: hamster, in vivo; cited from earlier work.
A further data set deals with NMRI mice. The settings on record: mouse, in vivo; cited from earlier work.
A further data set concerns mice. The settings on record: mouse, in vivo; cited from earlier work.
A further data set concerns NA activity. The format is biochemical.

In brackets after ≈: the same amount, converted by molar mass. Several values for one entry are separate records, joined by “and”; a condition that tells them apart may be missing. Equal values may be shown once. Where a name gives a salt, the structure may show the parent alone. Some results are limits rather than exact numbers.

As for `O=C(O)C1=CC(=C(c2ccc(O)c(C(=O)O)c2)c2ccc(O)c(C(=O)O)c2)C=CC1=O` [ATA, Aurintricarboxylic acid], the EC50 in the data set with influenza A PR8 virus [1] came to 6.5 µg/mL (≈ 15.4 µM). In addition, in data set [2], the “protection from virus-induced CPE, prophylactic exposure” value was “did not protect cells from virus-induced CPE” and the “protection of infected MDCK cells (neutral red uptake)” value was “significantly protected MDCK cells from influenza infection”. Further, in the data set on influenza A PR8 virus [3], the “reduction of virus abundance in medium” value was 93% and 95%. In addition, in the data set on influenza A NC virus, the “reduction of virus abundance in medium” value was 86% and 94%. In addition, the “reduction of virus abundance in medium” value in the data set on influenza A NY virus was 72% and 81%. Also, in the data set with influenza A PR8 virus [4], the “Virus yield, Cells” value was 5×10^4 PFU/ml; the “Virus yield, Medium” value was 1.3×10^4 PFU/ml; the “magnitude of inhibition, production of infectious viral particles” value is “at least 3 logs”. For the same compound, the “viral NP RNA level” value in the data set on influenza A PR8 virus [5] was “substantial reduction in viral NP RNA”. Moreover, in [6], the “plaques after pre-incubation of virus with ATA” value is reported as “reduced the number of plaques”. For the same compound, the “number and size of plaques” value with influenza A or B viruses is “reduced both the number and size of plaques”. In the data set with influenza A PR8 virus [7], the “viral aggregation by electron microscopy” value is listed as “induce viral aggregation on the cell surface”. Besides, the IC50 in data set [8] was 39.3 µM. Also, at recombinant N4 protein, the IC50 was 2.37 µM. This compound also returned a CC50 at 48 h in “in vitro” of 577 µg/mL (≈ 1370 µM). For the same compound, the “well tolerated infusion dose” value with hamsters is recorded as “up to 1 mg/kg/hour”. In the data set with NMRI mice, the LD50 is on record as 340 mg/kg and the median life span is 18 days. The “single dose tolerated well” value in the data set with mice is listed as no more than 4 mg/kg.
As to “N-acetyl-2,3-dehydro-2-deoxyneuraminic acid [NAA]”, in the data set with influenza A PR8 virus [4], the “Virus yield, Cells” value is listed as 6.2×10^6 PFU/ml and the “Virus yield, Medium” value is listed as 4.7×10^6 PFU/ml. The “inhibition of NA activity” value in the data set on NA activity is “inhibited NA activity with very low IC50 values”.
The matching figures for `NC12CC3CC(CC(C3)C1)C2` [AH, amantadine hydrochloride]: 4.7×10^5 PFU/ml, 3×10^5 PFU/ml and “no inhibition”.
